Experimental data from patent US6015838A, “Aqueous film-forming foam compositions” (3M Innovative Properties Company, priority 1996, dated 2000).

Tests used:
[1] = Thermal degradation in aqueous media; format: physicochemical
Method: The thermal degradation of an aqueous a-branched perfluoroalkylcarbonyl fluoride and the characterization of the products produced from the degradation were carried out using the following procedure. 8 g of C7 F15 CF(CF3)COF (made as in Example A4) was dispersed in deionized water and was refluxed for 2 hours. 5.7 g of volatile degradation products were then collected by azeotropic distillation using a Dean-Stark apparatus.
The thermal degradation of C7 F15 CF(CF3)COF (from Example A4) dispersed in water was also carried out by heating the aqueous mixture for several hours at approximately 80° C.

[2] = Storage of 5% aqueous solution at room temperature; format: physicochemical
Method: The α-branched open chain ammonium salt compounds from Examples N3-N6 were dissolved in deionized water at a concentration of 5% by weight (0.5 g ammonium salt in 10 mL water) and were stored at room temperature.

[3] = Thermogravimetric analysis of neat perfluorocarboxylate salts; format: physicochemical; conditions: neat salt, 10° C./min, nitrogen
Source text: Thermal degradation measurements were made on a series of neat perfluorocarboxylate salts, including several ax-branched open chain structures (Examples N2-N9), a primarily linear open chain structure (Example N10--Fluorad™ FC-143 Fluorochemical Surfactant, commercially available from 3M Company, St. Paul, Minn.), and a closed chain (i.e., cyclic) structure (Example N11--made by the electrochemical fluorination of benzoic acid and hydrolysis in the presence of KOH, as described in U.S. Pat. No. 2,567,011 (Diesslin et al.)).
The perfluorocarboxylate salts were tested using a Perkin-Elmer TGA 7 thermogravimetric analysis apparatus and a salt sample size of approximately 5 mg, a heating rate of 10° C./min, and a nitrogen gas flow rate of 40-45 mL/min. Using the TGA 7 software, the following temperatures were recorded: (1) the onset temperature of decomposition, (2) the temperature at which 50% of the sample weight was lost, and (3) the temperature at which 90% of the sample weight was lost.

[4] = Surface tension and critical micelle concentration (CMC) of aqueous surfactant solutions; format: physicochemical; conditions: Table 5; deionized water, at CMC
Source text: Critical Micelle Concentration (CMC): The critical micelle concentration is defined as the concentration at which further surface tension is no longer lowered with increasing levels of surfactant. […] Surface tension is then plotted vs. log concentration and the data points are connected. The resulting curve has a nearly horizontal flat portion at concentrations above the CMC and has a negative steep slope at concentrations below the CMC. The CMC is defined as the lowest surfactant concentration in the horizontal flat portion of the curve.
(§1) Then the critical micelle concentration (CMC) was determined for each surfactant.
as §1

[5] = test system: rats; experiment: Acute LD50, one-time feeding study of rats; format: in vivo, rat
Method: Acute LD50 measurements for a one-time feeding study of rats were determined over a 21 day period for both the a-branched perfluorocarboxylate salt, C7 F15 CF(CF3)COO^- NH4^+, and its straight chain isomer, CF3 (CF2)8 COO^- NH4^+.

[6] = literature; cited from earlier work
[7] = Stability of esters to concentrated aqueous ammonium hydroxide; format: physicochemical; conditions: stirred 2 days (comparable conditions)
Source text: The acrylate and methacrylate esters from Examples D1-D11 were fully recoverable with essentially no degradation after being stirred with concentrated aqueous ammonium hydroxide for a period of 2 days.

Row | SMILES | onset temperature of decomposition [3] | temperature for 50% loss [3] | temperature for 90% loss [3] | Surf. Tens. (surface tension at the CMC) [4] | other results
1 | O=C(F)C(F)(C(F)(F)F)C(F)(F)C(F)(F)C(F)(F)C(F)(F)C(F)(F)C(F)(F)C(F)(F)F (centres unmarked) [Example A1, C7 F15 CF(CF3)COF] |  |  |  |  | degradation products (in words) ([1]; aqueous mixture heated several hours at approximately 80° C.): The same volatile products were formed; olefin in degradation products ([1]; dispersed in deionized water, refluxed 2 hours, C6 F13 CF=CFCF3): 15%; monohydride in degradation products ([1]; dispersed in deionized water, refluxed 2 hours, C7 F15 CFHCF3): 85%; volatile degradation products collected ([1]; from 8 g, refluxed 2 hours in deionized water): 5.7 g
2 | O=C(O)C(F)(F)C(F)(F)C(F)(F)C(F)(F)C(F)(F)C(F)(F)C(F)(F)F [FC-143, C7 F15 COO^- H4 N^+] | 173 °C | 188 °C | 202 °C | 21.5 dynes/cm | degradation over 1 year (in words) [2]: no signs of degradation
3 | O=C(O)C(F)(C(F)(F)F)C(F)(F)C(F)(F)C(F)(F)C(F)(F)C(F)(F)C(F)(F)C(F)(F)F (centres unmarked) [Example M1, C7 F15 CF(CF3)COOH] |  |  |  |  | degradation products (in words) ([1]; aqueous solution, carried out in a similar way): the same monohydride and olefin
4 | O=C(O)C(F)(F)C(F)(F)C(F)(F)C(F)(F)C(F)(F)C(F)(F)C(F)(F)C(F)(F)C(F)(F)F [C9 F19 COO^- NH4^+, CF3 (CF2)8 COO^- NH4^+, reference compound] |  |  |  |  | toxicity relative to the α-branched isomer ([5]; LD50 comparison): ca. 10 times; acute toxicity (in words) ([5]; one-time feeding, rats): moderately toxic; wasting syndrome ([5]; one-time feeding, rats): Wasting syndrome was observed; toxicity (in words) [6]: moderately toxic
5 | O=C(O)C(F)(C(F)(F)F)C(F)(F)C(F)(F)C(F)(F)C(F)(F)C(F)(F)C(F)(F)C(F)(F)C(F)(F)F (centres unmarked) [Example M17, C8 F17 CF(CF3)COO^- H4 N^+] | 142 °C | 162 °C | 184 °C | 14.7 dynes/cm | 
6 | C=CC(=O)OCCOC(=O)C(F)(F)C(F)(F)C(F)(F)C(F)(F)C(F)(F)C(F)(F)C(F)(F)F [C7 F15 COOCH2 CH2 OCOCH=CH2] |  |  |  |  | hydrolytic stability in concentrated aqueous ammonium hydroxide [7]: readily hydrolyzed
7 | O=C(O)C(F)(C(F)(F)F)C(F)(F)C(F)(F)C(F)(F)C(F)(F)C(F)(F)C(F)(F)F (centres unmarked) [Example M16, C6 F13 CF(CF3)COO^- H4 N^+] | 165 °C | 179 °C | 193 °C | 17.9 dynes/cm | 
